In patent US8658636B2, “TRPV4 antagonists” (GlaxoSmithKline, LLC, priority 2010, dated 2014):

The compounds below were run against T1, human TRPV4 (Homo sapiens, UniProt Q9HBA0) (assay: Ligand-gated assay (FLIPR calcium, Fluo4)). Settings: HEK-293-MSR-II cells transduced with BacMam human TRPV4; inhibition of agonist (EC80)-induced activation; read-out: Human TRPV4 FLIPR pIC50 (converted).
T1 construct: expressed in transfected cells; host or cells: HEK-293-MSR-II cells transduced with 1% BacMam virus
Format: cell-based
Description: TRP channel activation/opening results in an influx of divalent and monovalent cations including calcium. The resulting changes in intracellular calcium are monitored using a calcium selective fluorescent dye Fluo4 (MDS Analytical Technologies). Dye loaded cells were initially exposed to test compound to verify a lack of agonist activity. Cells were subsequently activated by addition of an agonist and inhibition of the agonist-induced activation was recorded. Human embryonic kidney 293 cells stably expressing the macrophage scavenger receptor class II (HEK-293-MSR-II) and transduced with 1% BacMam (J. P. Condreay, S. M. Witherspoon, W. C. Clay and T. A. Kost, Proc Natl Acad Sci 96 (1999), pp. 127-132) virus expressing the human TRPV4 gene were plated at 15000 cells/well in a volume of 50 uL in a 384 well poly-D lysine coated plate. Cells were incubated for 24 hours at 37 degrees and 5% CO2. Media was then aspirated using a Tecan Plate-washer and replaced with 20 uL of dye loading buffer: HBSS, 500 uM Brilliant Black (MDS Analytical Technologies), 2 uM Fluo-4. Dye loaded plates were then incubated in the dark at room temperature for 1-1.5 hours. 10 uL of test compound diluted in HBSS+0.01% Chaps was added to the plate, incubated for 10 min at room temperature in the dark and then 10 uL of agonist was added at a final conc. equal to the agonist EC80. Calcium release was measured using the FLIPRtetra (MDS Analytical Technologies).

T1 sequence (Q9HBA0 whole entry): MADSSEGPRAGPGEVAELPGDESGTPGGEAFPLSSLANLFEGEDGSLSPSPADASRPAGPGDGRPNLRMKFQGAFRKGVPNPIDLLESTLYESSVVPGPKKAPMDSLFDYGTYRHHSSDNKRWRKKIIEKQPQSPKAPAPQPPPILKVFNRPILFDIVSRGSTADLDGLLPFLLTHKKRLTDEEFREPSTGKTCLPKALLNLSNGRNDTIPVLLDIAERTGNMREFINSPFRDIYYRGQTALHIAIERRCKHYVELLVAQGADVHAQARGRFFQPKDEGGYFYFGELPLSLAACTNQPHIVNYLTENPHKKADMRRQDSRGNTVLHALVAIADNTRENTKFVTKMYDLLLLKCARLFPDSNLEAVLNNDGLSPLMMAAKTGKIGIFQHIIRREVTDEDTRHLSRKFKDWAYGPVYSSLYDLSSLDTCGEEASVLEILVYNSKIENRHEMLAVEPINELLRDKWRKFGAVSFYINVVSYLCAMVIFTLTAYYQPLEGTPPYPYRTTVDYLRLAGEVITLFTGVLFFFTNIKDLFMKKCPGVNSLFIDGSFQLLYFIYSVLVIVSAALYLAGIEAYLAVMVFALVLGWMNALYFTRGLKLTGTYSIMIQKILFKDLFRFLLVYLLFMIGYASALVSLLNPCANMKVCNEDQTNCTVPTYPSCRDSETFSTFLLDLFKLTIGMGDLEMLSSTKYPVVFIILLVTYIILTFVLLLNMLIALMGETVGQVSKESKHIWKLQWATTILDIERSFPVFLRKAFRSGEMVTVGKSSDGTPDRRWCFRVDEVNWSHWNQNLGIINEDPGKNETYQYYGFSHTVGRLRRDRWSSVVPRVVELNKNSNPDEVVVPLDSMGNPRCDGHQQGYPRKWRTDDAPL

Compound	IC50 [nM]
CC1CN(Cc2c(-c3cccc(C(F)(F)F)c3)nc3ccc(S(=O)(=O)C(C)C)cc3c2C(=O)N[C@H](c2ccccc2)C(F)(F)F)CCC1N1CCOCC1 (mixture of isomers) [Example 38, 6-[(1-methylethyl)sulfonyl]-3-{[3-methyl-4-(4-morpholinyl)-1-piperidinyl]methyl}-2-[3-(trifluoromethyl)phenyl]-N-[(1R)-2,2,2-trifluoro-1-phenylethyl]-4-quinolinecarboxamide]	10
CS(=O)(=O)c1ccc2nc(-c3cccc(C(F)(F)F)c3)c(CN3CCC(N4CCCCC4)CC3)c(C(=O)N[C@H](c3ccccc3)C(F)(F)F)c2c1 [Example 1, 3-(1,4′-bipiperidin-1′-ylmethyl)-6-(methylsulfonyl)-2-[3-(trifluoromethyl)phenyl]-N-[(1R)-2,2,2-trifluoro-1-phenylethyl]-4-quinolinecarboxamide]	3.16
CCS(=O)(=O)c1cc2c(C(=O)N[C@H](c3ccccc3)C(F)(F)F)c(CN3CCC(N4CCCCC4)CC3)c(-c3cccc(C(F)(F)F)c3)nc2cc1OC [Example 3, 3-(1,4′-bipiperidin-1′-ylmethyl)-6-(ethylsulfonyl)-7-(methyloxy)-2-[3-(trifluoromethyl)phenyl]-N-[(1R)-2,2,2-trifluoro-1-phenylethyl]-4-quinolinecarboxamide]	6.31
CC(C)Oc1cc2nc(-c3cccc(C(F)(F)F)c3)c(CN3CCC(N4CCOCC4)CC3)c(C(=O)N[C@H](c3ccccc3)C(F)(F)F)c2cc1S(C)(=O)=O [Example 20, 7-[(1-methylethyl)oxy]-6-(methylsulfonyl)-3-{[4-(4-morpholinyl)-1-piperidinyl]methyl}-2-[3-(trifluoromethyl)phenyl]-N-[(1R)-2,2,2-trifluoro-1-phenylethyl]-4-quinolinecarboxamide]	6.31
COc1cc2nc(-c3cccc(C(F)(F)F)c3)c(CN3CCC(N4CCCCC4)CC3)c(C(=O)N[C@H](c3ccccc3)C(F)(F)F)c2cc1S(=O)(=O)C(C)C [Example 21, 3-(1,4′-bipiperidin-1′-ylmethyl)-6-[(1-methylethyl)sulfonyl]-7-(methyloxy)-2-[3-(trifluoromethyl)phenyl]-N-[(1R)-2,2,2-trifluoro-1-phenylethyl]-4-quinolinecarboxamide]	3.98
COc1cc2nc(-c3cccc(C(F)(F)F)c3)c(CN3CCC(N4CCOCC4)CC3)c(C(=O)N[C@H](c3ccccc3)C(F)(F)F)c2cc1S(=O)(=O)C(C)C [Example 22, 6-[(1-methylethyl)sulfonyl]-7-(methyloxy)-3-{[4-(4-morpholinyl)-1-piperidinyl]methyl}-2-[3-(trifluoromethyl)phenyl]-N-[(1R)-2,2,2-trifluoro-1-phenylethyl]-4-quinolinecarboxamide]	6.31
CCOc1cc2nc(-c3cccc(C(F)(F)F)c3)c(CN3CCC(N4CCOCC4)CC3)c(C(=O)N[C@H](c3ccccc3)C(F)(F)F)c2cc1S(=O)(=O)C(C)C [Example 23, 7-(ethyloxy)-6-[(1-methylethyl)sulfonyl]-3-{[4-(4-morpholinyl)-1-piperidinyl]methyl}-2-[3-(trifluoromethyl)phenyl]-N-[(1R)-2,2,2-trifluoro-1-phenylethyl]-4-quinolinecarboxamide]	6.31
CCOc1cc2nc(-c3cccc(C(F)(F)F)c3)c(CN3CCC(N4CCOCC4)CC3)c(C(=O)N[C@H](c3ccccc3)C(F)(F)F)c2cc1S(=O)(=O)CC [Example 26, 7-(ethyloxy)-6-(ethylsulfonyl)-3-{[4-(4-morpholinyl)-1-piperidinyl]methyl}-2-[3-(trifluoromethyl)phenyl]-N-[(1R)-2,2,2-trifluoro-1-phenylethyl]-4-quinolinecarboxamide]	10
